The results in this text go back to patent publication US11566017B2, “Dihydroquinazolinone compound or pharmacologically acceptable salt, and cell growth inhibitor” (RIKEN, priority 2017, dated 2023).

Where only a bound is given, the exact number is not on record here.

Assay [1] relates to tubulin (microtubule polymerization). Nature of the assay: Microtubule polymerization inhibition test (fluorescence kit BK011P). The assay is classed as biochemical. As to conditions: 60 min. How it is done: Using a microtubule polymerization reaction measurement kit (Cytoskeleton Inc.; BK011P), the microtubule polymerization inhibitory activity of the compound (test compound) prepared in each of Examples was evaluated on the basis of the standard protocol of the kit. Solutions with concentrations of 30 μM and 150 μM were prepared by dissolving the test compound in DMSO, and used as test compound solutions (with final concentrations of 3 μM and 15 μM, respectively). DMSO was used as a negative control solution, and vincristine (final concentration: 3 μM) was used as a positive control solution.
5 μL of the test compound solution or each control solution, and 50 μL of a microtubule-containing reaction mixture (1×Buffer 1; 1 mM GTP; 15% glycerol; and tubulin with a concentration of 2 mg/mL) were added to a 96-well plate (Corning Costar Company; #3686) warmed to 37° C., and a change in fluorescence of the reaction solution was measured over 1 hour. A higher fluorescence intensity means a higher degree of progression of polymerization of microtubules. The composition of Buffer 1 and the fluorescence measurement conditions employed in the analysis are shown below.
80 mM Piperazine-N,N′-bis[2-ethanesulfonic acid] sequisodium salt; 2.0 mM Magnesium chloride; 0.5 mM Ethylene glycol-bis (β-amino-ethyl ether)N,N,N′,N′-tetra-acetic acid; 10 μM fluorescent reporter
Measurement wavelength: 360 nm (excitation wavelength) and 450 nm (emission wavelength)
Measurement time: 60 min (1 cycle/min)
Equipment used: Microplatereader SpectraMax M2 (Molecular Devices Company)

Assay [2] concerns human colorectal cancer cell line COLO-320DM. As to the kind of experiment: Cell proliferation inhibitory activity test (Celltiter-Glo). The assay is classed as cell-based. As to conditions: COLO-320DM cells, 96 hours. A general note: Cellular ATP, detected with luciferase, serves as a proxy for viable cell number.
In another assay the target is T1, tankyrase 1 (TNKS1) (Homo sapiens, UniProt O95271).
T1 construct: tankyrase 1 (1,024-1,327aa, SAM+PARP); made in house; host or cells: cell-free protein expression system
T1 sequence (O95271 1024-1327): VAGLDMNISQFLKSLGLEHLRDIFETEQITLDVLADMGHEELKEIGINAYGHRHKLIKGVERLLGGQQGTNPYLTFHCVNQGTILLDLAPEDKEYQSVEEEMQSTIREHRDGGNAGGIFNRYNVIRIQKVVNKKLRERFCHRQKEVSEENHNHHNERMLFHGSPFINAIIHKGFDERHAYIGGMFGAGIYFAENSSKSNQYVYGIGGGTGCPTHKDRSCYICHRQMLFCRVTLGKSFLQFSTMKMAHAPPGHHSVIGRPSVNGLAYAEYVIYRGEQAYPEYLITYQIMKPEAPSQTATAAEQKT
Nature of the assay: Tankyrase inhibitory activity test (ELISA, auto-poly(ADP-ribosyl)ation), tankyrase 1. The format is biochemical. To be noted: Flag tagged tankyrase 1 (1,024-1,327aa, SAM+PARP); read-out: TNKS1 (inhibitory activity against tankyrase 1, IC50). In outline: (§1)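 Cell-free-expressed Flag-tagged TNKS1 (1,024-1,327aa, SAM+PARP) or TNKS2 (613-1,116aa, ANK5+SAM+PARP) was captured on anti-FLAG plates and pre-incubated 10 min at RT with compound (pH 8.0, MgCl2, DTT). Auto-PARylation was started with NAD solution (225 μM NAD, 25 μM biotin-NAD), 45 min at 30 °C. Detection by HRP-streptavidin chemiluminescence; IC50 from residual activity.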

Another assay concerns the target T2, tankyrase 2 (TNKS2) (Homo sapiens, UniProt Q9H2K2).
T2 construct: tankyrase 2 (613-1,116aa, ANK5+SAM+PARP); made in house; host or cells: cell-free protein expression system
As to the kind of experiment: Tankyrase inhibitory activity test (ELISA, auto-poly(ADP-ribosyl)ation), tankyrase 2. The format is biochemical. As to conditions: Flag tagged tankyrase 2 (613-1,116aa, ANK5+SAM+PARP); read-out: TNKS2 (inhibitory activity against tankyrase 2, IC50). In short, it runs like this:
as §1

The mark [3] stands for this setting: racemates, 3 μM (FIG. 1A) and 15 μM (FIG. 1B).

For `COc1ccc(-c2n[nH]nc2C2NC(=O)c3cccc(C)c3N2)cc1` (racemic) [Example 65, 2-[5-(4-Methoxyphenyl)-2H-1,2,3-triazol-4-yl]-8-methyl-2,3-dihydro-1H-quinazolin-4-one], the “microtubule polymerization: increase in fluorescence intensity” value (“microtubule polymerization: increase” for short) in assay [1] (setting [3]) is reported as “slower increase in fluorescence intensity as compared to the DMSO control”. Also, the 50% growth inhibitory concentration (GI50) (commonly the concentration that inhibits growth by half) in assay [2] is < 1000 nM. The figures for the IC50 on tankyrase 1 (TNKS1) and at tankyrase 2 (TNKS2) were 5 to 20 nM and < 5 nM, respectively.

Regarding `COc1ccc(-c2n[nH]nc2C2NC(=O)c3cccc4c3N2CC4)cc1` (racemic) [Example 69, 11-[5-(4-Methoxyphenyl)-2H-1,2,3-triazol-4-yl]-1,10-diazatricyclo[6.3.1.0^4,12]dodeca-4(12),5,7-trien-9-one], in assay [1] (setting [3]), the “microtubule polymerization: increase” value was “slower increase in fluorescence intensity as compared to the DMSO control”. Also, in assay [2], the GI50 lay in the range of 1000 to 10000 nM. Moreover, the IC50 on tankyrase 1 (TNKS1) and on tankyrase 2 (TNKS2) was 5 to 20 nM each time.

Turning to `CCOc1ccc(-c2n[nH]nc2C2NC(=O)c3cccc(C)c3N2)cc1` (racemic) [Example 70, 2-[5-(4-Ethoxyphenyl)-2H-1,2,3-triazol-4-yl]-8-methyl-2,3-dihydro-1H-quinazolin-4-one], in assay [1] (setting [3]), the “microtubule polymerization: increase” value is given as “slower increase in fluorescence intensity as compared to the DMSO control”. Also, the GI50 in assay [2] was < 1000 nM. Moreover, the IC50 (commonly the concentration needed to halve the response being measured) is 5 to 20 nM at tankyrase 1 (TNKS1) and < 5 nM at tankyrase 2 (TNKS2).

Take `CC[C@]1(O)C[C@H]2CN(CCc3c([nH]c4ccccc34)[C@@](C(=O)OC)(c3cc4c(cc3OC)N(C=O)[C@H]3[C@@](O)(C(=O)OC)[C@H](OC(C)=O)[C@]5(CC)C=CCN6CC[C@]43[C@@H]65)C2)C1` [vincristine, reference compound]: the “microtubule polymerization: increase” value in assay [1] (positive control, final concentration 3 μM) is given as “slower increase in fluorescence intensity as compared to the DMSO control”.
